ChEMBL document CHEMBL1909046, “DrugMatrix in vitro pharmacology data”

Columns and labels:
[1] = DRUGMATRIX: Glutamate, Kainate radioligand binding (ligand: [3H] Kainic acid); assay type: cell membranes, Rattus norvegicus, Wistar, Brain, Membrane; conditions: Not Active = under 50% inhibition at 10 µM
[2] = DRUGMATRIX: Phorbol Ester radioligand binding (ligand: [3H] PDBu); assay type: cell membranes, Mus musculus, ICR, Brain, Membrane; conditions: Not Active = under 50% inhibition at 10 µM
[3] = DRUGMATRIX: Atrial Natriuretic Factor (ANF) radioligand binding (ligand: [125I] ANF (rat)); assay type: cell membranes, Cavia porcellus, Dunkin-Hartley, Adrenal gland, Membrane; conditions: Not Active = under 50% inhibition at 10 µM
[4] = biological target: T1, Nitric oxide synthase, inducible (Mus musculus, UniProt P29477); design: species or system Escherichia coli;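 note: inhibition of iNOS enzyme activity measured with L-arginine as substrate; in other assays of this panel Not Active means under 50% inhibition at 10 µM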
T1 sequence (P29477 whole entry): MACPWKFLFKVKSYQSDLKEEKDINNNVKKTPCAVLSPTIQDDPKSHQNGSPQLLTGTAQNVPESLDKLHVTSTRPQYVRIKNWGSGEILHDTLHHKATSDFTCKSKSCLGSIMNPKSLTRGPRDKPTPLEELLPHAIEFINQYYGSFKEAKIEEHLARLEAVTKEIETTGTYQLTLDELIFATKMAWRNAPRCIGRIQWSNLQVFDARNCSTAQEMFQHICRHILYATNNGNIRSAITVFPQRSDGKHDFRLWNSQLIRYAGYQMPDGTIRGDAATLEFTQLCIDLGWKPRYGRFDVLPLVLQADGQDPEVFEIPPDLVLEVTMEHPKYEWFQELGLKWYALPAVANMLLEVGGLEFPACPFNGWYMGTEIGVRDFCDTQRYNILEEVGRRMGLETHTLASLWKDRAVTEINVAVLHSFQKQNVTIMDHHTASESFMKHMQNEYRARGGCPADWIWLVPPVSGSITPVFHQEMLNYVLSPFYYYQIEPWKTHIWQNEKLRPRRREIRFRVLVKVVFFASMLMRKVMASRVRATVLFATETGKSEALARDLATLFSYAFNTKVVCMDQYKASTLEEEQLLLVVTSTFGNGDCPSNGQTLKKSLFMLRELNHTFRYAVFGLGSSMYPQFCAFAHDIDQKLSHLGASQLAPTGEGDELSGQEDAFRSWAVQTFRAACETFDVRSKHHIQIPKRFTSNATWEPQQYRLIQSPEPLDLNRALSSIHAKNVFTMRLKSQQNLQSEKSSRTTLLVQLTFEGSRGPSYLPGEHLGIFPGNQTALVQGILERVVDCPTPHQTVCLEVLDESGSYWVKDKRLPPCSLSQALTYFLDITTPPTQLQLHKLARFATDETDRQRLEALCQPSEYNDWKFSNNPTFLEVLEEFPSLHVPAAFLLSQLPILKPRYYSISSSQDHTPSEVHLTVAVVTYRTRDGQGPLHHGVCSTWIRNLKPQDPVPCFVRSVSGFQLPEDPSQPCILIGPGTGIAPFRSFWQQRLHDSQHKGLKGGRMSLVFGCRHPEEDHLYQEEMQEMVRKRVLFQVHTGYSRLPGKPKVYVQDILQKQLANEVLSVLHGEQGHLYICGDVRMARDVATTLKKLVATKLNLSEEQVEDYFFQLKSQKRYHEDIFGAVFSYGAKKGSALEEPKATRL

Vasopressin V1a receptor = Vasopressin V1a receptor (Homo sapiens, UniProt P37288); assay type: cell membranes, Membrane; conditions: hek293; note: in other assays of this panel Not Active means under 50% inhibition at 10 µM
Vasopressin V1a receptor, sequence (P37288 whole entry): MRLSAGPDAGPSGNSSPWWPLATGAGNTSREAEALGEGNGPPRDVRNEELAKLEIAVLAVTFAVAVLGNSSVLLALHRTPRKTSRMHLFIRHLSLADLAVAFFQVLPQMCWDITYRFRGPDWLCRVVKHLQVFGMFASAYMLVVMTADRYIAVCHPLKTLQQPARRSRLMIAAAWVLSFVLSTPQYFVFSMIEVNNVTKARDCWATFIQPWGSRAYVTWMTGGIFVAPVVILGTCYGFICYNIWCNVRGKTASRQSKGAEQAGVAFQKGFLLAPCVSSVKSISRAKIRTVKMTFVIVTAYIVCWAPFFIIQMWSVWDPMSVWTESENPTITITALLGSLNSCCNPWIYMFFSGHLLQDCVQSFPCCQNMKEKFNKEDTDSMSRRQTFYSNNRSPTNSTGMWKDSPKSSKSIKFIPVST

[5] = biological target: T2, Type-2 angiotensin II receptor (Homo sapiens, UniProt P50052); experiment: biochemical; assay type: cell-based, CHO-K1; conditions: cho-k1; note: in other assays of this panel Not Active means under 50% inhibition at 10 µM
T2 sequence (P50052 whole entry): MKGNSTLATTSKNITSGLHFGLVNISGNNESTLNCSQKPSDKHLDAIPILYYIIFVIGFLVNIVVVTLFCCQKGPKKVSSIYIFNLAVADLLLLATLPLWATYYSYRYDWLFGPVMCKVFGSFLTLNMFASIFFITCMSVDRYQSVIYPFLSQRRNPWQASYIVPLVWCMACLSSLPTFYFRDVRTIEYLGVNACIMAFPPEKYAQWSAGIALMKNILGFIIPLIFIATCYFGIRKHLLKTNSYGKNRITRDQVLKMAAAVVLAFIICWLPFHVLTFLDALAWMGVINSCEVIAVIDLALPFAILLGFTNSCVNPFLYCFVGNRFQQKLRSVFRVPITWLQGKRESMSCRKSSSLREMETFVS

[6] = biological target: Vascular endothelial growth factor receptor 1 (Homo sapiens, UniProt P17948); assay type: cell-based; conditions: huvec; note: in other assays of this panel Not Active means under 50% inhibition at 10 µM
Vascular endothelial growth factor receptor 1, sequence (P17948 whole entry): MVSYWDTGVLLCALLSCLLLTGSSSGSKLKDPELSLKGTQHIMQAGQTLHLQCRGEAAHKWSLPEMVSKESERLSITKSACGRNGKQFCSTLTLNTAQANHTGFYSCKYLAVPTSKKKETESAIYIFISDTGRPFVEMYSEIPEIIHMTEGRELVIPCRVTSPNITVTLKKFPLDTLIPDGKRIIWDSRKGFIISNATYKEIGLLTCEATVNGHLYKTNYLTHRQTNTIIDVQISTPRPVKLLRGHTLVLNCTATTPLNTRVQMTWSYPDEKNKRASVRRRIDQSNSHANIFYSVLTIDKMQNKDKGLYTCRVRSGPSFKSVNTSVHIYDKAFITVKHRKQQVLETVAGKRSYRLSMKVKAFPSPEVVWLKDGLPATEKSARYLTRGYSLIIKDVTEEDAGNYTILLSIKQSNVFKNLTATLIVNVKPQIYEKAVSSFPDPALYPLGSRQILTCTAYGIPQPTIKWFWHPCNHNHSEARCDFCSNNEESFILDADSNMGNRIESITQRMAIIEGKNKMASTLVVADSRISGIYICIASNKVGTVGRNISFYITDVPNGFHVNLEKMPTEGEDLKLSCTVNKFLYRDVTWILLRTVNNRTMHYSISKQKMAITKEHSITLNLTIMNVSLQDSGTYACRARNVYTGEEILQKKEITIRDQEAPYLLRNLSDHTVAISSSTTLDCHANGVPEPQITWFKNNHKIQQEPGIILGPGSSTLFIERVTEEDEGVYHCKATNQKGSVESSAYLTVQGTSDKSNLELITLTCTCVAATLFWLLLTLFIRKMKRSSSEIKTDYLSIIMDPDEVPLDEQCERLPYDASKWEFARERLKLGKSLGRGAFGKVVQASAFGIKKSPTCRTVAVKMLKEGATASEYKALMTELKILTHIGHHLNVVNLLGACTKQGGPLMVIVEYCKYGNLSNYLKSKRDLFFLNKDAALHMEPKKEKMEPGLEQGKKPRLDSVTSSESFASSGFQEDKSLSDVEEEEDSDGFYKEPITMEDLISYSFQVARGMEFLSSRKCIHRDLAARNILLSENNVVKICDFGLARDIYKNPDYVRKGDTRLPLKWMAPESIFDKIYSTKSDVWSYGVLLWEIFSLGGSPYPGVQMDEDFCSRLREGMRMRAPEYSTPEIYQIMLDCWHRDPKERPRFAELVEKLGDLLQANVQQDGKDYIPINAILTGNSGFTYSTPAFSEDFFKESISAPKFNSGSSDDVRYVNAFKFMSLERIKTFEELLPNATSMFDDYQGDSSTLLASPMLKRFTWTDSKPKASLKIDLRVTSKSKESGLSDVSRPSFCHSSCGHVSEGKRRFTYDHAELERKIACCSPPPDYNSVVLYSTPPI

[7] = biological target: T3, Alpha-2A adrenergic receptor (Homo sapiens, UniProt P08913); assay type: cell membranes, Sf9, Membrane; conditions: sf9; note: in other assays of this panel Not Active means under 50% inhibition at 10 µM
T3 sequence (P08913 whole entry): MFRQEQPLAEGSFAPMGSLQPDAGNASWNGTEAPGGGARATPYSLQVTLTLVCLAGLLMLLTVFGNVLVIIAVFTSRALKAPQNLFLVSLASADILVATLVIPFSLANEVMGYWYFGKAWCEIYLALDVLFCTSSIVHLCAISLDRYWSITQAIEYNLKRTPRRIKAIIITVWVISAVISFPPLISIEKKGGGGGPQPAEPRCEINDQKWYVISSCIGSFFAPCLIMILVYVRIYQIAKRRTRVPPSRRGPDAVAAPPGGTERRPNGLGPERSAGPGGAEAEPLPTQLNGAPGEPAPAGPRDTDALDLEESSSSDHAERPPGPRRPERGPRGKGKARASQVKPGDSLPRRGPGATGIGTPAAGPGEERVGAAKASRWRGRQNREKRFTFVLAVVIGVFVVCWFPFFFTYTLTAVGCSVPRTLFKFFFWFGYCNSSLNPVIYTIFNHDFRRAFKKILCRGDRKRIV

CC(=O)Oc1ccccc1C(=O)O [ASPIRIN]
Not Active: IC50 [1] | Ki [1] | IC50 [2] | Ki [2] | IC50 [3] | Ki [3] | IC50 [4] | IC50 (Vasopressin V1a receptor) | IC50 [5] | IC50 [6] | IC50 [7]

CC(C)c1c(C(=O)Nc2ccccc2)c(-c2ccccc2)c(-c2ccc(F)cc2)n1CC[C@@H](O)C[C@@H](O)CC(=O)O [ATORVASTATIN]
Not Active: IC50 [1] | Ki [1] | IC50 [2] | Ki [2] | IC50 [3] | Ki [3] | IC50 [4] | IC50 (Vasopressin V1a receptor) | IC50 [5] | IC50 [6] | IC50 [7]

CC(=O)OC[C@H]1O[C@@H](n2ncc(=O)[nH]c2=O)[C@H](OC(C)=O)[C@@H]1OC(C)=O [AZARIBINE]
Not Active: IC50 [1] | Ki [1] | IC50 [2] | Ki [2] | IC50 [3] | Ki [3] | IC50 [4] | IC50 (Vasopressin V1a receptor) | IC50 [5] | IC50 [6] | IC50 [7]

C[C@H]1[C@H](NC(=O)/C(=N\OC(C)(C)C(=O)O)c2csc(N)n2)C(=O)N1S(=O)(=O)O [AZTREONAM]
Not Active: IC50 [1] | Ki [1] | IC50 [2] | Ki [2] | IC50 [3] | Ki [3] | IC50 [4] | IC50 (Vasopressin V1a receptor) | IC50 [5] | IC50 [6] | IC50 [7]

O=C(O)CCNC(=O)c1ccc(/N=N/c2ccc(O)c(C(=O)O)c2)cc1 [BALSALAZIDE]
Not Active: IC50 [1] | Ki [1] | IC50 [2] | Ki [2] | IC50 [3] | Ki [3] | IC50 [4] | IC50 (Vasopressin V1a receptor) | IC50 [5] | IC50 [6] | IC50 [7]

COc1cc(OC)c(C(=O)CCCN2CCCC2)c(OC)c1 [BUFLOMEDIL]
Not Active: IC50 [1] | Ki [1] | IC50 [2] | Ki [2] | IC50 [3] | Ki [3] | IC50 [4] | IC50 (Vasopressin V1a receptor) | IC50 [5] | IC50 [6] | IC50 [7]

Cn1c(=O)c2c(ncn2C)n(C)c1=O [CAFFEINE]
Not Active: IC50 [1] | Ki [1] | IC50 [2] | Ki [2] | IC50 [3] | Ki [3] | IC50 [4] | IC50 (Vasopressin V1a receptor) | IC50 [5] | IC50 [6] | IC50 [7]

ClC(Cl)(Cl)Cl [CARBON TETRACHLORIDE]
Not Active: IC50 [1] | Ki [1] | IC50 [2] | Ki [2] | IC50 [3] | Ki [3] | IC50 [4] | IC50 (Vasopressin V1a receptor) | IC50 [5] | IC50 [6] | IC50 [7]

CO/N=C(\C(=O)N[C@@H]1C(=O)N2C(C(=O)O)=C(COC(C)=O)CS[C@H]12)c1csc(N)n1 [CEFOTAXIME]
Not Active: IC50 [1] | Ki [1] | IC50 [2] | Ki [2] | IC50 [3] | Ki [3] | IC50 [4] | IC50 (Vasopressin V1a receptor) | IC50 [5] | IC50 [6] | IC50 [7]

CNC1=Nc2ccc(Cl)cc2C(c2ccccc2)=[N+]([O-])C1 [CHLORDIAZEPOXIDE]
Not Active: IC50 [1] | Ki [1] | IC50 [2] | Ki [2] | IC50 [3] | Ki [3] | IC50 [4] | IC50 (Vasopressin V1a receptor) | IC50 [5] | IC50 [6] | IC50 [7]

Cc1cc(O)cc(C)c1Cl [CHLOROXYLENOL]
Not Active: IC50 [1] | Ki [1] | IC50 [2] | Ki [2] | IC50 [3] | Ki [3] | IC50 [4] | IC50 (Vasopressin V1a receptor) | IC50 [5] | IC50 [6] | IC50 [7]

CCCNC(=O)NS(=O)(=O)c1ccc(Cl)cc1 [CHLORPROPAMIDE]
Not Active: IC50 [1] | Ki [1] | IC50 [2] | Ki [2] | IC50 [3] | Ki [3] | IC50 [4] | IC50 (Vasopressin V1a receptor) | IC50 [5] | IC50 [6] | IC50 [7]

NS(=O)(=O)c1cc(C2(O)NC(=O)c3ccccc32)ccc1Cl (stereo not drawn) [CHLORTHALIDONE]
Not Active: IC50 [1] | Ki [1] | IC50 [2] | Ki [2] | IC50 [3] | Ki [3] | IC50 [4] | IC50 (Vasopressin V1a receptor) | IC50 [5] | IC50 [6] | IC50 [7]
